US10800732B2, “Substituted malonamides and their use as antibacterial drugs” (National Taiwan University, priority 2015, dated 2020)
Values after ≈ are worked out from the molar mass of the structure shown. Read-outs that look alike come from different tables or passages of the source. Blank lines part the entries; values can stand above or below the compound they belong to.

Assays:
MRSA (ATCC 43300) [1] = assay: Minimal biofilm eradication concentration, MRSA in the biofilm; type: cell-based, methicillin-resistant Staphylococcus aureus; conditions: MRSA (ATCC 43300) in the biofilm
Protocol: A biofilm is composed of attached microorganisms enclosed in an extracellular polymeric substance matrix. Bacteria embedded in the biofilm are protected from antibiotic-mediated killing and the immune response. Reports have shown that biofilm formation is an important factor contributing to S. aureus infections of the skin, lung and indwelling medical devices such as catheters. Thus, the effect of SC5005 on MRSA in a biofilm was assayed.

MRSA (ATCC 43300) [2] = assay: MIC, MRSA ATCC 43300; type: cell-based, methicillin-resistant Staphylococcus aureus; conditions: Staphylococcus aureus
Human HT-29 cells = assay: LDH release assay (membrane integrity); type: cell-based; conditions: 1 hour, concentration up to 128-fold of MIC against S. aureus
Protocol: FIG. 10. Membrane integrity of human cells treated with SC5005 and SC5035. Human HT-29 cells were treated with SC5005 and SC5035 for 1 hour followed by the evaluation of membrane integrity with LDH release assay. LDH released from HT-29 cells into culture medium was assessed by using CytoTox 96 NonRadioactive Cytotoxicity Assay. Cell treated with 1% triton X-100 serves as positive control (100% release). Bars represent the mean, and error bars represent the SD (n=3).
To further validate the activity of SC5005 and SC5035 on the membrane of human cells, the integrity of cellular membrane of cells treated with these two compounds was assessed by using LDH release assay. Human HT-29 cells were treated with SC5005 and SC5035 for 1 hour, and then the LDH released from cell into culture medium was assayed.

MRSA ATCC 33592 = assay: MIC, MRSA ATCC 33592; type: cell-based, methicillin-resistant Staphylococcus aureus; conditions: Staphylococcus aureus
S. aureus NCTC 8325 [3] = assay: Intracellular ATP leakage (ATPlite one-step); type: cell-based, Staphylococcus aureus; conditions: 4×MIC for 15 min
Protocol: FIG. 6. Intracellular ATP leakage of S. aureus treated with SC5005, SC5035 and antibiotics. […] Data was presented as percentage of intracellular ATP level to that of untreated bacteria cells (considered as 100%). Bars represent the mean, and error bars represent the SD (n=3). ***: p-value <0.001
To investigate whether SC5005 and SC5035 also act on bacterial cell membrane, intracellular ATP levels of S. aureus treated with SC5005, SC5035 and antibiotics for 15 min was determined by using ATPlite one-step assay kit.

human red blood cells = assay: Hemolytic activity; type: cell-based; conditions: 1 h, concentration up to 128-fold of MIC against S. aureus
Protocol: FIG. 9. Hemolytic activities of SC5005 and SC5035 on human red blood cell. Human red blood cells were incubated with SC5005 (A) and SC5035 (B) for 1 h followed by measuring the absorption of RBC released hemoglobin at 540 nm with microplate reader. Cell treated with 1% triton X-100 serves as positive control (P.C.; 100% hemolysis), and those treated with normal saline serves as negative control (N.C.) Bars represent the mean, and error bars represent the SD (n=3).
As data shown above, SC5005 and SC5035 can kill bacteria via forming pore in bacterial membrane. To see whether the pore-forming activity of these two compounds is specific for bacterial membrane, the hemolytic activities of these two agents on human red blood cells were accessed.

S. aureus NCTC 8325 [4] = assay: Membrane integrity (SYTO 9 / propidium iodide staining); type: cell-based, Staphylococcus aureus; conditions: 4×MIC (Triton X-100: 10%) for 15 minutes
Description: FIG. 7. Membrane integrity of S. aureus after SC5005, SC5035 and five common antibiotics treatment. […] SYTO 9, a green fluorescence dye, stains chromosome of all bacteria cells, regardless of the membrane integrity. In contrast, propidium iodide (PI), a red fluorescence dye, only stains cell with damaged membrane. Thus, bacteria cell with intact membrane can only be stained by SYTO 9, and cell with perforated membrane will be stained by both fluorescence dyes, showing a yellow color in merged images.
To further validate the action mechanism of SC5005 and SC5035, two fluorescence dyes were used for evaluation of membrane integrity of drug treated S. aureus. The propidium iodide dye only stains cells with perforated membrane, while the SYTO 9 stains all cells in spite of membrane integrity.

S. aureus NCTC 8325 [5] = assay: MIC, S. aureus NCTC 8325 (CLSI broth microdilution / agar dilution); type: cell-based, Staphylococcus aureus
S. aureus NCTC 8325 [6] = assay: Biosynthesis of macromolecules (3H precursor incorporation); type: cell-based, Staphylococcus aureus; conditions: 4×MIC for 1 h
Protocol: FIG. 5. Effect of SC5005 and SC5035 on the biosynthesis of macromolecules in S. aureus. […] Meanwhile, ofloxacin (1 mg/L), rifampicin (1 mg/L), erythromycin (2 mg/L), and vancomycin (2 mg/L) were used as control inhibitors for the biosynthesis of DNA, RNA, protein and cell wall, respectively. Data are means of three independent experiments. Error bars represent the SD.
To investigate the mode of action of SC5005, a new derivative, SC5035, with better selectivity of antibacterial activity over cytotoxicity was included in the assays. First, the impacts of these two compounds on the biosynthesis of important macromolecules, including DNA, RNA, protein and cell wall, in S. aureus NCTC 8325 were assessed. Bacteria cells were incubated with [^3H]thymidine to assess DNA synthesis, [^3H] uridine to assess RNA synthesis, [^3H] leucine to assess protein synthesis, and [^3H] N-Acetyl-D-glucosamine to assess cell wall synthesis. The ofloxacin, rifampicin, erythromycin and vancomycin were used as control inhibitor for DNA, RNA, protein, and cell wall biosynthesis, respectively. Inhibition of biosynthesis pathway was determined by a reduction in the radial isotope signal of bacteria.

[7] = test system: S. epidermidis ATCC 12228; assay: MIC, S. epidermidis ATCC 12228; type: cell-based; conditions: Staphylococcus epidermidis, ATCC12228
MRSA ATCC 49476 = assay: MIC, MRSA ATCC 49476; type: cell-based, methicillin-resistant Staphylococcus aureus; conditions: Staphylococcus aureus
MRSA SCCmec VT = assay: MIC, MRSA SCCmec VT; type: cell-based, methicillin-resistant Staphylococcus aureus; conditions: Staphylococcus aureus, MRSA
[8] = test system: clinical isolated VISA strain; assay: MIC, VISA; type: cell-based, vancomycin-intermediate Staphylococcus aureus
S. aureus NCTC 8325 [9] = type: cell-based, Staphylococcus aureus; conditions: sub-inhibitory concentration for 30 consecutive days
VRSA (SJC1200) = assay: MIC, VRSA; type: cell-based, vancomycin-resistant Staphylococcus aureus
[10] = MRSA (ATCC 43300), read-out: MIC

MIC (MRSA (ATCC 43300) [2]; [10]): 0.5 µg/mL (≈ 0.309 µM)
Compound: CCCCCCCCCC(=O)N[C@@H](Cc1c[nH]c2ccccc12)C(=O)N[C@H](CC(N)=O)C(=O)N[C@@H](CC(=O)O)C(=O)N[C@@H]1C(=O)NCC(=O)N[C@@H](CCCN)C(=O)N[C@@H](CC(=O)O)C(=O)N[C@H](C)C(=O)N[C@@H](CC(=O)O)C(=O)NCC(=O)N[C@H](CO)C(=O)N[C@@H]([C@H](C)CC(=O)O)C(=O)N[C@@H](CC(=O)c2ccccc2N)C(=O)O[C@@H]1C [Daptomycin]
MBEC (MRSA (ATCC 43300) [1]): 1024 mg/L

MIC (MRSA (ATCC 43300) [2]; [10]): 1 µg/mL (≈ 2.96 µM)
Compound: CC(=O)NC[C@H]1CN(c2ccc(N3CCOCC3)c(F)c2)C(=O)O1 [Linezolid]
MBEC (MRSA (ATCC 43300) [1]): >1024 mg/L
MBEC (MRSA (ATCC 43300) [1]; listed as linezolid): 1024 mg/L

Compound: O=C(Nc1cc(Cl)cc(Cl)c1)C(CCCl)C(=O)Nc1ccc(Cl)c(C(F)(F)F)c1 (stereo not drawn) [SC5035, N^1-(4-chloro-3-(trifluoromethyl)phenyl)-2-(2-chloroethyl)-N^3-(3,5-dichlorophenyl)malonamide]
LDH level released into culture medium (Human HT-29 cells): no significant increase in the LDH level
MIC (MRSA ATCC 33592; MRSA ATCC 33592, Table 6, read-out: MIC): 0.25 µg/mL (≈ 0.512 µM)
intracellular ATP levels (S. aureus NCTC 8325 [3]): significantly dropped
hemolysis of RBC (human red blood cells): no significant hemolysis
propidium iodide staining (membrane integrity) (S. aureus NCTC 8325 [4]): can be stained by propidium iodide
MIC (S. aureus NCTC 8325 [5]; Staphylococcus aureus, MSSA NCTC 8325, Table 6, read-out: MIC): 0.25 µg/mL (≈ 0.512 µM)
incorporation signal in DNA, RNA, protein and cell wall biosynthesis (S. aureus NCTC 8325 [6]): lower signal in all four macromolecule biosynthesis pathway

Compound: CN[C@H](CC(C)C)C(=O)N[C@H]1C(=O)N[C@@H](CC(N)=O)C(=O)N[C@H]2C(=O)N[C@H]3C(=O)N[C@H](C(=O)N[C@H](C(=O)O)c4cc(O)cc(O)c4-c4cc3ccc4O)[C@H](O)c3ccc(c(Cl)c3)Oc3cc2cc(c3O[C@@H]2O[C@H](CO)[C@@H](O)[C@H](O)[C@H]2O[C@H]2C[C@](C)(N)[C@H](O)[C@H](C)O2)Oc2ccc(cc2Cl)[C@H]1O [Vancomycin, reference compound]
MIC [7]: 1 µg/mL (≈ 0.69 µM)
MIC (MRSA ATCC 49476): 1 µg/mL (≈ 0.69 µM)
MIC (MRSA ATCC 33592): 1 µg/mL (≈ 0.69 µM)
MIC (MRSA SCCmec VT): 1 µg/mL (≈ 0.69 µM)
MIC ([8]; Staphylococcus aureus, VISA): 4 µg/mL (≈ 2.76 µM)
increase in the value of MIC ([8]; VISA compared to vancomycin-susceptible S. aureus (VSSA)): 4 fold
fold MIC change (resistance) (S. aureus NCTC 8325 [9]): 4 fold
MIC (S. aureus NCTC 8325 [5]; S. aureus (NCTC 8325), Table 3): 0.5 µg/mL (≈ 0.345 µM)
MIC (S. aureus NCTC 8325 [5]; Staphylococcus aureus, NCTC8325): 0.5 µg/mL (≈ 0.345 µM)
MBEC (MRSA (ATCC 43300) [1]): 1024 mg/L
MBEC (MRSA (ATCC 43300) [1]; listed as vancomycin): > 1024 mg/L
MIC (VRSA (SJC1200); Staphylococcus aureus, VRSA): 512 µg/mL (≈ 353 µM)
decrease in the susceptibility (VRSA (SJC1200); VRSA compared to VSSA): over five-hundred decrease in the susceptibility
MIC (MRSA (ATCC 43300) [2]): 1 µg/mL (≈ 0.69 µM)

Compound: Triton X-100 [reference compound]
propidium iodide staining (membrane integrity) (S. aureus NCTC 8325 [4]): can be stained by propidium iodide
